Results: patent US7569537B2, “Peptide antagonists for inhibiting heat shock protein (Hsp 16.3) of Mycobacterium tuberculosis” (priority 2004, dated 2009)
pIC50: −log10 of the molar value. No end group written: not given here.

Experiments:
Hsp16.3 [1] = target: T1, Hsp16.3 (Mycobacterium tuberculosis, UniProt P9WMK1); assay: ADH heat aggregation assay for inhibition of Hsp16.3 chaperon activity; format: biochemical
Experimental: FIG. 2. […] Aggregation assays were performed by heating 5 μM Alcohol dehydrogenase (ADH) to 50° C. directly in a spectrophotometer using a thermostated cuvette holder in a total reaction volume of 500 μl. Optical density was monitored at 360 nm for 1200 seconds and readings were taken at every 100 seconds interval. […] Then the same experiment was performed in the presence of increasing concentrations of the Hsp16.3 binding peptide Seq IDs 10. Aggregation of ADH in the absence of Hsp 16.3 (black triangle). Aggregation in the presence of Hsp 16.3 (black circle). The same experiment when performed in the presence of increasing concentrations of the Hsp 16.3 binding peptide (Seq ID 10) 25 μM (white square), 50 μM (black square), 100 μM (white triangle). Only peptide control (ADH+100 μM peptide) (white circle).
The binding of a peptide need not necessarily result in inhibition. Inhibition will happen only if binding leads to significant changes in the active site. […] A part of the invention is the development of a peptide inhibition assay for Hsp16.3. The method is based on aggregation based assays. The standard assay used for assaying the activity of alpha-crystallin like proteins is to study the protection it confers against heat induced aggregation of proteins, the aggregation activity being measured spectrophotometrically. […] Aggregation of 5 μM ADH at 50° C. can be measured as an apparent optical density at 360 nm using a spectrophotometer equipped with a thermostated cuvette holder in a total reaction volume of 500 μl. The chaperon activity of Hsp16.3 can be determined by mixing ADH with Hsp16.3 at a molar ratio of 5:4 which is equivalent to a ratio of about 12:1 between ADH and Hsp16.3 assuming a nonameric structure of Hsp16.3 as the functional unit (Chang et al., 1996) and aggregation rates again determined spectrophotometrically. […]
A part of the invention is the peptide inhibition assay for Hsp16.3 comprising of heat treating ADH alone, ADH+Hsp16.3 and ADH+Hsp16.3+25, 50 and 100 μM peptide. […] Aggregation of 5 μM ADH at 50° C. was measured as an apparent optical density at 360 nm using Hitachi spectrophotometer equipped with a thermostated cuvette holder in a total reaction volume of 500 μl. The chaperon activity of Hsp16.3 was determined by mixing ADH with Hsp16.3 at a molar ratio of 5:4 and aggregation rates were again determined spectrophotometrically. […]
Aggregation assays were performed by heating 5 μM Alcohol dehydrogenase (ADH) to 50° C. directly in a spectrophotometer using a thermostated cuvette holder in a total reaction volume of 500 μl. Absorbance was monitored at 360 nm (A360) for 1200 seconds and readings were taken at every 100 seconds interval. […] The increase in absorbance indicates aggregation of ADH. […]

Hsp16.3 [2] = target: T1, Hsp16.3; details: reverse phage ELISA, A405, 30 μg/well Hsp16.3 or BSA
Hsp16.3 [3] = target: T1, Hsp16.3; assay: NMR (TOCSY) amide proton chemical shifts of peptide free and with Hsp16.3; format: binding; details: 0.1 mM protein, 2 mM peptide, pH 7.0, 4 °C
Experimental: FIG. 5. Comparison of chemical shifts of amide protons of free peptide (Seq ID 10) (a) and peptide with Hsp16.3 protein (b). Resonance assignments are indicated with a one-letter amino acid code. All NMR spectra were taken in a Bruker DRX-500 spectrometer equipped with a Z-field gradient probe. All measurements were done in high precision 5-mm NMR tubes in 20 mM sodium phosphate buffer, pH 7.0, containing 250 mM NaCl in 90% H2O and 10% D2O at 4° C. TOCSY spectra were measured using standard pulse sequences in the Bruker pulse library using WATERGATE water suppression method. Standard Bruker software (Xwin-NMR version 1.3) was used to acquire and process the NMR data. The NMR samples were adjusted to a protein concentration of 0.1 mM and a 20-fold ligand excess (2 mM) over binding sites was used throughout the studies.
An important aspect of inhibitor development procedures is to understand the nature of interactions between the inhibitor and its target. […] As a part of this disclosure it is shown that histidine residues in one of the two peptide inhibitors namely Seq ID 10 interact with Hsp16.3 as determined by NMR.
All NMR spectra were taken in a Bruker DRX-500 NMR spectrometer equipped with a Z-field gradient probe. […] TOCSY spectra were measured using standard pulse sequences in the Bruker pulse library using WATERGATE water suppression method. […]

human alphaB-crystallin = target: T2, human alphaB-crystallin (Homo sapiens, UniProt P02511); assay: ADH heat aggregation assay with alphaB-crystallin instead of Hsp16.3; format: biochemical; details: 25, 50 and 100 μM peptide, ADH:alphaB-crystallin 5:4
T2 construct: made in house
T2 sequence (P02511 1-175): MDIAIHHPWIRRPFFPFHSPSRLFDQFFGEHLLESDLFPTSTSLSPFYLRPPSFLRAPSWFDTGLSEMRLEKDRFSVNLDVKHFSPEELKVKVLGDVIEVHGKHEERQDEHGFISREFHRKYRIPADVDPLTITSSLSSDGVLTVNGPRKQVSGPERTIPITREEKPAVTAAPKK
Experimental: FIG. 3. An example to show the specificity of the inhibitory peptides for Hsp16.3 and not for alphaB-crystallin—a component of human eye lens. A similar assay as described in FIG. 2 was performed using alphaB-crystalline instead of Hsp16.3. The molar ratio between ADH and alphaB-crystallin was maintained 5:4 as in the case of Hsp 16.3. Aggregation in the absence of alphaB-crystallin (black triangle). Aggregation in the presence of alphaB-crystalline (black circle). The same experiment was performed in the presence of increasing concentrations of the Hsp16.3 binding peptide (Seq ID 10) 25 μM (white square), 50 μM (black square), 100 μM (white triangle). Only peptide control (ADH+100 μM peptide) (white circle).
ADH upon being heated to 50° C. aggregates. This aggregation can be completely stopped when Hsp16.3 is added in such a way so as to obtain a molar ratio of ADH to Hsp 16.3 monomer of about 5:4. Incorporation of peptide at a concentration of 100 μM i.e. about 25 fold molar excess leads to significant inhibition of chaperon activity. […] Since it has been shown that Hsp16.3 has functional similarity with human alphaB-crystallin, an eye lens protein (Valdez et al., 2002), therefore the effect of these peptides on human alphaB-crystallin was examined. […] The vector used for expression of this protein was originally generated by Dr. W. C. […]

T1 sequence (P9WMK1 whole entry, looked up): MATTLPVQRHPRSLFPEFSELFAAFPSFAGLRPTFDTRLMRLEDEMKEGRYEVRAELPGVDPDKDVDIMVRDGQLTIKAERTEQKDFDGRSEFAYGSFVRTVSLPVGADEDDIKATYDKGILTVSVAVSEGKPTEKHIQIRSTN

Substance | pIC50 (Hsp16.3 [1]) | binding of phage clone to Hsp16.3 compared to non-specific control BSA (background binding) (Hsp16.3 [2]) | further results
H-YPHHFKHRHIPIGGGS-NH2 [Seq ID 22] | ~4.30 |  | 
YPHHFKHRHIPI [Seq ID 21] |  | about three-fold | 
KMHATNH [Seq ID 9] |  | about three-fold | 
H-KMHATNHGGGS-NH2 [Seq ID 10] | ~4.30 |  | chemical shift change of peptide amide protons on addition of Hsp16.3 (Hsp16.3 [3]): significant chemical shift occured in both histidines; inhibition of chaperon activity of Hsp16.3 (in words) (Hsp16.3 [1]; 25, 50 and 100 μM peptide): dose dependent inhibition; effect of peptide alone on aggregation of ADH (control without Hsp16.3) (Hsp16.3 [1]; ADH + 100 μM peptide, no Hsp16.3): does not influence the aggregation of ADH; inhibition of chaperon activity of alphaB-crystallin (in words) (human alphaB-crystallin): no inhibition
